Reference: patent publication US4235666A, “1,2,3,4,4a,9a-Hexahydro-9,10-anthracene-dione, its preparation and its application to the delignification of lignocellulosic materials” (Produits Chimiques Ugine Kuhlmann, priority 1978, dated 1980)
Entries after “also recorded” stand apart in the source; their conditions may differ. Like-named read-outs stand apart in the source and are kept apart here.

Tests used:
Design in all cases: species or system moorland maritime pine
[1] = Caustic soda cooking (delignification) with adjuvant; settings: for Kappa index: NFT 12018
Description: Shavings of moorland maritime pine are subjected to heating in an autoclave with a caustic soda liquor. The cooking conditions are as follows:
Amount of caustic soda: 22% by weight with respect to the dry vegetable material.
Ratio of liquor/vegetable material: 4
Temperature of cooking: 170° C.
Time in which the cooking temperature
Time of cooking: 90 minutes
Amount of adjuvant: 0-0.1%-0.5%-1% by weight with respect to the dry vegetable material
After cooking, the pulps obtained are washed, disintegrated on a 3 mm grid (Vewerk grader or sorter).
The crude yield and the yield of sorted pulp are determined on the pulps, and the Kappa index according to French standard NFT 12018 are determined on the raw pulps.
The pH and the consumption of caustic soda are determined on the liquors after cooking.
A comparative test with 0.5% of anthraquinone was carried out under the same operational conditions as in Example 9.

[2] = Mechanical characteristics of raw pulps from caustic soda cooking, refined at 40° SR; settings: for Index of rupture / Index of tearing / Length of rupture / Resistance to bending: 0.5% adjuvant, 40° SR
Description: (§1) The raw pulps for reference and those obtained with 0.5% of adjuvant in the cooking are refined in a Jokro mill.
(§2) Sheets for physical tests are produced on a Rapid Kothen mold. Their weight per m^2 is about 70 g.
(§3) The following mechanical characteristics are determined:
(§4) Length of break: AFNOR NFQ 03004 standard
(§5) Index of splitting or cracking: AFNOR NFQ 03014 standard
(§6) Tearing index: AFNOR NFQ 03011 standard
(§7) Resistance to bending or folding: AFNOR NFQ 03001 standard
The mechanical characteristics of the raw or unwashed pulps obtained after heating with caustic soda in the presence of 0.5% of adjuvant are compared with those of a conventional Kraft pulp (Table IV).
Mechanical characteristics of raw pulps refined at
40° SR caustic soda cooking with 0.5% of adjuvant

[3] = Kraft cooking (caustic soda-sulfuric liquor) with adjuvant
Description: Shavings from moorland maritime pine are subjected to cooking in an autoclave with a caustic soda-sulfuric liquor under the following conditions:
Proportion of active alkali: 22% by weight with respect to the dry vegetable material,
Sulfidity: 25% with respect to the active alkali,
Ratio liquor/vegetable material: 4
Temperature of heating: 170° C.
Time taken to arrive at the heating temperature: 90 min.,
Time of heating: 120 min.
Amount of adjuvant: 0-0.1%-0.5%-1% by weight with respect to the dry vegatable material.
After cooking, the same operations as those described in Example 9 are carried out on the pulps and the cooking liquors. […]

[4] = Mechanical characteristics of crude pulps from Kraft cooking, refined at 40° SR; settings: for Index of rupture / Index of tearing / Length of rupture / Resistance to bending: 0.5% adjuvant, 40° SR
Description: as §1, §2, §3, §4, §5, §6, §7
After cooking, the same operations as those described in Example 9 are carried out on the pulps and the cooking liquors.
A comparative test with 0.5% of anthraquinone is effected under the same operational conditions as in Example 11. The mechanical characteristics of the pulps obtained are compared with those of a Kraft pulp for reference (Table VII).
Mechanical characteristics of the crude pulps refined at
40° SR Kraft cooking with 0.5% of adjuvant

**Q.** What does the source list for `O=C1c2ccccc2C(=O)c2ccccc21` [Anthraquinone, anthraquinone, reference compound]?
**A.** % Caustic soda consumed/wood ([1]; 0.5% adjuvant): 17.5%; Classified yield ([1]; 0.5% adjuvant): 46.2%; Crude yield ([1]; 0.5% adjuvant): 46.8%; Kappa index ([1]; 0.5% adjuvant): 32.2; Index of rupture [2]: 5.07; Index of tearing [2]: 813; Length of rupture [2]: 7,230 m; Resistance to bending [2]: 945; % Effective alkali consumed/wood ([3]; 0.5% adjuvant): 17.4%; Classified yield ([3]; 0.5% adjuvant): 43.8%; Crude yield ([3]; 0.5% adjuvant): 44%; Kappa index ([3]; 0.5% adjuvant): 24.3; mechanical characteristics / degradation of pulps ([4]; Kraft cooking): inferior mechanical characteristics; also recorded: a relatively large degradation is observed; Index of rupture ([4]; Kraft cooking): 4.48; Index of tearing ([4]; Kraft cooking): 808; Length of rupture ([4]; Kraft cooking): 5,850 m; Resistance to bending ([4]; Kraft cooking): 905

**Q.** What does the source list for `O=C1c2ccccc2C(=O)C2CCCCC12` (stereo not drawn) [6 HAD, 1,2,3,4,4a,9a-hexahydro-9,10-anthracene-dione]?
**A.** effect on delignification [1]: has the same effect as the anthraquinone; % Caustic soda consumed/wood ([1]; 0.1% adjuvant): 16.9%; Classified yield ([1]; 0.1% adjuvant): 45.7%; Crude yield ([1]; 0.1% adjuvant): 46.2%; Kappa index ([1]; 0.1% adjuvant): 51.7; % Caustic soda consumed/wood ([1]; 0.5% adjuvant): 17.9%; Classified yield ([1]; 0.5% adjuvant): 45.5%; Crude yield ([1]; 0.5% adjuvant): 45.8%; Kappa index ([1]; 0.5% adjuvant): 33.4; % Caustic soda consumed/wood ([1]; 1% adjuvant): 18.1%; Classified yield ([1]; 1% adjuvant): 45.5%; Crude yield ([1]; 1% adjuvant): 45.7%; Kappa index ([1]; 1% adjuvant): 28.0; effect on delignification ([1]; listed as 1,2,3,4,4a,9a-hdxahydro9,10-anthracene-dione): accelerates the delignification and makes it more selective; Index of rupture [2]: 4.82; Index of tearing [2]: 922; Length of rupture [2]: 7,030 m; Resistance to bending [2]: 1,846; quality / mechanical properties of pulps ([2]; compared with conventional Kraft pulp): very near to the quality of the conventional Kraft pulp; also recorded: mechanical properties similar to those of Kraft pulps with a similar yield and Kappa indexes; effect on delignification, Kappa index and yield [3]: enables the Kappa index of the pulps to be appreciably lowered without alteration of the mechanical properties; also recorded: With identical Kappa indexes, yields greater than those of the Kraft process referred to can be obtained; also recorded: increases the kinetics and the selectivity of the delignification; also recorded: decrease of the Kappa index of the pulps without reduction of the yield of the cooking; % Effective alkali consumed/wood ([3]; 0.1% adjuvant): 17.5%; Classified yield ([3]; 0.1% adjuvant): 44.3%; Crude yield ([3]; 0.1% adjuvant): 44.6%; Kappa index ([3]; 0.1% adjuvant): 27.4; % Effective alkali consumed/wood ([3]; 0.5% adjuvant): 17.9%; Classified yield ([3]; 0.5% adjuvant): 44.5%; Crude yield ([3]; 0.5% adjuvant): 44.8%; Kappa index ([3]; 0.5% adjuvant): 24.2; % Effective alkali consumed/wood ([3]; 1% adjuvant): 18.2%; Classified yield ([3]; 1% adjuvant): 44.3%; Crude yield ([3]; 1% adjuvant): 44.4%; Kappa index ([3]; 1% adjuvant): 22.0; mechanical characteristics / degradation of pulps [4]: more favorable than that of anthraquinone; Index of rupture ([4]; Kraft cooking): 5.55; Index of tearing ([4]; Kraft cooking): 847; Length of rupture ([4]; Kraft cooking): 7,000 m; Resistance to bending ([4]; Kraft cooking): 1,917
